From patent publication US9389219B2, “Methods for screening inhibitors of tumor associated protein aggregation” (Vrije Universiteit Brussel, priority 2011, dated 2016)
Entries after “also recorded” stand apart in the source; their conditions may differ. Like-named read-outs stand apart in the source and are kept apart here. Where a SMILES comes first, the peptide text is derived from it. The star is where a group is joined. Cbz = O=C(OCc1ccccc1)*

Key:
Type in all cases: cell-based, human
WT p53 in U2OS cells [1] = assay: Native page analysis of p53 in treated U2OS cells
mutant p53 = assay: BN-PAGE of p53 mutants over-expressed in SaOS-2 cells with MG-132; settings: I254R double mutants
Description: SaOS-2 or Hela cells were rinsed with ice-cold 20 mM Tris-HCl, 150 mM NaCl, pH 7.4 (TBS) and lysed with 18 mM 3-[(3-cholamidopropyl) dimethylammonio]-1-propanesulfonic acid (CHAPS) in TBS with DNase and protease inhibitors for 30 minutes at 21° C. or on ice, respectively. Whole-cell lysate was fractionated by both SDS-PAGE (NuPAGE system, Invitrogen) and Blue-Native PAGE (NativePAGE system, Invitrogen) following the product manuals. For SDS-PAGE, sample was denatured at 95° C. for 10 minutes in the presence of 2% sodium dodecyl sulfate (SDS) and then fractionated by 10% Bis-Tris gels in MES-SDS running buffer (0.1% SDS, 50 mM MES, and 50 mM Tris-Base). For Blue-Native PAGE, cell lysate was added with 20% glycerol and 5 mM Coomassie G-250 before loading onto 3-12% Novex Bis-Tris gradient gels. […] After three times of rinsing with TBS containing 0.1% TWEEN® 20 (TBST), the membrane was stained with horseradish peroxidase (HRP)-conjugated goat anti-mouse IgG (Promega) and visualized with electrochemical luminescence (ECL) system. […]
In the degradation stability test, protein synthesis was blocked by 60 μg/mL cycloheximide 24 hours after transfection, and cells were lysed 0, 3, 6, 12, 24 and 48 hours after the addition of cycloheximide. […] Cells were analyzed by immunofluorescence after 24 hours.

WT p53 in U2OS cells [2] = assay: Immunofluorescent staining for p53 inclusions, InCell Analyzer 2000; settings: >1000 cells/condition
Description: It is becoming increasingly evident that resistance is also seen in cancers harboring wild-type p53, which might be explained by a change of conformation of wt p53 into a “mutant configuration.”^76 Cell lines harboring wt p53 were used and enhanced the expression using previously described chemotherapeutic agents. […] When performing immunofluorescent staining for p53 in U2OS cells, increased accumulation of non-soluble, inclusions of p53 in the cytoplasm was subsequently observed.

WT p53 in U2OS cells [3] = assay: Western blot of p53 in U2OS cells treated with chemotherapeutic agents

Row | SMILES | p53 high molecular-weight species (native page) (WT p53 in U2OS cells [1]) | proteasomal degradation of mutant p53 (mutant p53) | increase in cytoplasmic aggregates of p53 (WT p53 in U2OS cells [2]) | p53 expression level (Western blot) (WT p53 in U2OS cells [3]) | p53 expression level (Western blot) (WT p53 in U2OS cells [3]; listed as Cisplatin)
1 | CC(C)C[C@@H](C=O)NC(=O)[C@H](CC(C)C)NC(=O)[C@H](CC(C)C)NC(=O)OCc1ccccc1 [MG132] (Cbz-Leu-Leu-Leu-aldehyde) | smear was comparable | inhibited proteasomal degradation of mutant p53 | – | – | –
2 | N.N.[Cl][Pt][Cl] [cisplatin] | part of p53 ran as a high molecular weight smear; also recorded: high molecular-weight species of p53 | – | greater than three-fold increase | started to accumulate WT p53 | increased expression levels of p53
